Patent US10307389B2, “Succinate prodrugs for use in the treatment of lactic acidosis or drug-induced side-effects due to Complex I-related impairment of mitochondrial oxidative phosphorylation” (NEUROVIVE PHARMACEUTICAL AB, priority 2014, dated 2019)

Tests used:
[1] = system: permeabilized human peripheral blood mononuclear cells (PBMCs); assay: High-resolution respirometry of permeabilized human PBMCs; conditions: PBMC, read-out: IC50 for inhibition of OXPHOSCI capacity
Description: Real-time respirometric measurements were performed using high-resolution oxygraphs (Oxygraph-2k, Oroboros Instruments, Innsbruck, Austria). The experimental conditions during the measurements were the following: 37° C., 2 mL active chamber volume and 750 rpm stirrer speed. […] For data recording, DatLab software version 4 and 5 were used (Oroboros Instruments, Innsbruck, Austria). Settings, daily calibration and instrumental background corrections were conducted according to the manufacturer's instructions. […] All measurements were performed at a platelet concentration of 200×10^6 cells per mL or a PBMC concentration of 5×10^6 cells per mL. […] Maximal uncoupled respiratory electron transport system capacity supported by convergent input through complex I and […] ) was evaluated by subsequent titration with the protonophore carbonylcyanide p-(trifluoromethoxy) phenylhydrazone (FCCP). […] Complex IV activity was calculated by subtracting the sodium azide value from the TMPD value. With exception of complex IV activity, all respiratory states were measured at steady-state and corrected for ROX. Complex IV activity was measured after ROX determination and not at steady-state.

[2] = case report; cited from earlier work
[3] = system: intact human platelets; assay: Lactate production and pH of intact human platelets; type: cell-based; conditions: 8 h; metformin 1 and 10 mM, phenformin 0.5 mM, rotenone 2 μM
Description: Lactate levels are determined every 30 min using the Lactate Pro™ 2 blood lactate test meter (Arkray, Alere A B, Lidingö, Sweden) or similar types of measurements. Incubation is performed at 37° C. pH is measured at start, after 4 and after 8 h (or more frequently) of incubation using a Standard pH Meter, e.g. PHM210 (Radiometer, Copenhagen, Denmark). Drug candidates are added to the assay from start or following 30-60 min at concentrations within the range 10 μM-5 mM. […] In order to evaluate the specificity of the drug candidate, it is also tested in combination with a down-stream inhibitor of respiration such as the complex III inhibitor Antimycin at 1 μg/mL, which should abolish the effect of the drug candidate and restore the production of lactate.
Incubation was performed at 37° C. at a stirrer speed of 750 rpm, and pH was measured at start, after 4 and after 8 h of incubation (n=4) using a PHM210 Standard pH Meter (Radiometer, Copenhagen, Denmark).

[4] = patients; cited from earlier work
[5] = system: permeabilized human platelets; assay: cells
Description: Lactate production of intact human platelets was determined in PBS containing 10 mM glucose.
Subsequently the FADH2-linked substrate succinate (10 mM) was given to determine convergent complex I- and II-dependent OXPHOS capacity (OXPHOSCI+II). […] Finally, the artificial complex IV substrate N,N,N′,N′-tetramethyl-p-phenylenediamine dihydrochloride (TMPD, 0.5 mM) was added and the complex IV inhibitor sodium azide (10 mM) was given to measure complex IV activity and chemical background, respectively.

| SMILES | IC50 [1] [µM] | serum level in involuntary intoxication, prior to hemodialysis [2] | lactate production compared to control [3] | incidence of lactic acidosis [4] | IC50 ([5]; Homo sapiens, Platelet, 10 min, read-out: IC50 for inhibition of OXPHOSCI capacity) [µM] | ETSCII capacity and complex IV activity ([5]; permeabilized platelets, compared to controls) | potency of OXPHOSCI inhibition relative to metformin ([5]; permeabilized platelets, phenformin vs metformin) [fold] |
| --- | --- | --- | --- | --- | --- | --- | --- |
| CN(C)C(=N)N=C(N)N [Metformin] | 450 | over 2 mM | – | – | – | – | – |
| [H]/N=C(/N)N/C(=N/[H])NCCc1ccccc1 [Phenformin] | – | – | significantly more lactate | 4 cases per 10000 treatment-years | 58 | not ETSCII or respiration specific to complex IV | 20 |
